According to PubChem BioAssay AID493013 (Southern Research Specialized Biocontainment Screening …, 2011):
Activity calls are given as the source filed them. The rule behind the calls is not given here.

Test system: not listed separately
Test: mammalian cell cytotoxicity, dose response, cytotoxicity control, secondary assay, set 2 (AID 493013)
Conditions: mammalian cell line viability, cytotoxicity counter-screen; at 100 µM (top of the series)

Row | SMILES | viability
1 | Cc1cccc(C)c1OCC(=O)Nc1nc2ccccc2s1 | 84.5% (inactive)
2 | O=C(CC12CC3CC(CC(C3)C1)C2)NCc1ccc(F)cc1 | 86.5% (inactive)
3 | CCOc1ccc2nc(NC(=O)COc3ccc(F)cc3)sc2c1 | 96.4% (inactive)
4 | N/C(=N\c1nc2ccccc2o1)NC(=O)c1ccccc1Br | 84.6% (inactive)
5 | CC(=O)c1c(C)n(-c2cccc(Cl)c2)c2ccc(O)cc12 | 78.9% (inactive)
6 | Cc1ccccc1OCC(=O)Nc1ncn[nH]1 | 80.5% (inactive)
7 | Cc1ccc(OCC(=O)Nc2nnn(C)n2)c(C)c1 | 85.2% (inactive)
8 | COc1ccc2c(c1)c(C(C)=O)c(C)n2-c1ccccc1 | 92.5% (inactive)
9 | COc1ccc2nc(NC(=O)COc3ccc(Cl)cc3)sc2c1 | 92.1% (inactive)
10 | COc1cccc(NC(=O)C2CC2)c1 | 102% (inactive)
11 | CC(=O)Nc1ccc2nc(NC(=O)Cc3ccccc3)sc2c1 | 82.2% (inactive)
12 | CN(NC(=O)c1c(Cl)cccc1Cl)c1cccc(Cl)n1 | 79.9% (inactive)
13 | CCc1ccc2nc(/N=C(\N)NC(=O)c3ccccc3)nc(C)c2c1 | 81.6% (inactive)
14 | COc1ccc(C(=O)Nc2ccc3nc(N4CCCCC4)cc(C)c3c2)c(OC)c1 | 92% (inactive)
15 | COc1ccc2nc(NC(=O)c3oc4ccccc4c3C)sc2c1 | 80.8% (inactive)
16 | Cc1cc2cc(Cl)ccc2[nH]1 | 84.1% (inactive)
17 | Cc1cccnc1NC(=S)NC(=O)c1cncc(Br)c1 | 106% (inactive)
18 | Oc1ccc2[nH]ccc2c1 | 101% (inactive)
19 | CCOc1ccc2c(c1)c(C(C)=O)c(C)n2Cc1ccco1 | 94.5% (inactive)
20 | Cc1cc2cc(O)ccc2[nH]1 | 105% (inactive)

Row | SMILES | viability
21 | O=C(COc1ccc2ccccc2c1)Nc1nc2ccccc2[nH]1 | 91.9% (inactive)
22 | Cc1ccccc1OCC(=O)Nc1nnn(C)n1 | 87.8% (inactive)
23 | COc1cccc(NC(=S)Nc2cc(C)cc(C)n2)c1 | 89.5% (inactive)
24 | CC(=O)c1c(C)n(-c2ccccc2)c2ccc(OC(C)C)cc12 | 79.6% (inactive)
25 | Cc1ccccc1OCC(=O)Nc1ncccn1 | 100% (inactive)
26 | Cc1ccc(OCC(=O)Nc2ccc(Cl)cc2)c(C)c1 | 93.6% (inactive)
27 | O=C(COc1ccccc1Cl)Nc1nc2ccccc2s1 | 73.1% (inactive)
28 | CCOc1ccc2nc(NC(=O)COc3ccc(OC)cc3)sc2c1 | 102% (inactive)
29 | COC(=O)c1ccc2nc(NC(=O)COc3ccccc3)sc2c1 | 88.8% (inactive)
30 | COc1ccc2nc(NC(=O)COc3ccccc3)sc2c1 | 83.9% (inactive)
31 | N/C(=N\c1nc2ccccc2o1)NC(=O)c1ccccc1F | 96.4% (inactive)
32 | Cc1ccccc1OCC(=O)Nc1noc(-c2ccccc2)n1 | 96.4% (inactive)
33 | Cc1cc(C)c(OCC(=O)Nc2nc3ccccc3s2)c(Cl)c1 | 83.2% (inactive)
34 | c1ccc(OCc2nnc(-c3ccccc3)o2)cc1 | 72.5% (inactive)
35 | Cc1ccc(OCC(=O)Nc2nc3c(Cl)cccc3s2)cc1 | 97% (inactive)
36 | Cc1cc2ccccc2[nH]1 | 100% (inactive)
37 | O=C(COC(=O)C1CC1)c1c[nH]c2ccccc12 | 95.5% (inactive)
38 | CC(=O)c1c(C)n(-c2ccccc2)c2ccc(O)cc12 | 80.4% (inactive)
39 | Cc1cc2cc(F)ccc2[nH]1 | 95% (inactive)
40 | Cc1ccc(OCC(=O)Nc2cccc3c(NC(=O)COc4ccc(C)cc4C)cccc23)c(C)c1 | 96.3% (inactive)

Row | SMILES | viability
41 | CCOc1ccc2nc(NC(=O)Cc3ccc(OC)cc3)sc2c1 | 83.6% (inactive)
42 | O=C(Cc1csc(-c2ccccc2F)n1)Nc1nc2ccccc2[nH]1 | 88.2% (inactive)
43 | CC(=O)c1c(C)n(-c2ccccc2C)c2ccc(O)cc12 | 82.3% (inactive)
44 | CCOc1ccc2nc(NC(=O)COc3ccccc3)sc2c1 | 76.4% (inactive)
45 | S=C(Nc1ccccc1)Nc1ccc(Cl)cn1 | 97.2% (inactive)
46 | O=C(CSc1n[nH]c(=O)n1C1CC1)c1ccc2c(c1)OCCO2 | 94.5% (inactive)
47 | O=C(O)CCC(=O)Nc1nc2ccccc2s1 | 98.8% (inactive)
48 | Cc1onc(-c2c(Cl)cccc2Cl)c1/C(N)=N/OC(=O)C1CC1 | 102% (inactive)
49 | COc1ccc2nc(NC(=O)COc3ccccc3C(C)C)sc2c1 | 93.8% (inactive)
50 | CCOc1ccc(NC(=O)COc2ccc(C)cc2C)cc1 | 78.7% (inactive)
51 | Cc1ccc(OC(C)C(=O)Nc2ncccn2)c(C)c1 (centres undefined) | 86.1% (inactive)
52 | Cc1cc(C)c(OCC(=O)Nc2nc3ccccc3[nH]2)c(C)c1 | 85.7% (inactive)
53 | COc1ccc2nc(NC(=O)COc3c(C)cc(C)cc3C)sc2c1 | 79.6% (inactive)
54 | O=C(COC(=O)C1=COCCO1)Nc1ccc2c(c1)OCO2 | 89% (inactive)
55 | CCCOc1ccc2c(c1)c(C(C)=O)c(C)n2-c1ccccc1 | 97.1% (inactive)
56 | Cc1cc(C)c(OCC(=O)Nc2nc3ccc(C)cc3s2)c(C)c1 | 87.7% (inactive)
57 | O=C(OC(C(=O)Nc1ccc(Cl)cc1C(F)(F)F)c1ccccc1)C1=COCCO1 (centres undefined) | 72.7% (inactive)
58 | Cc1ccc(OCC(=O)Nc2nc3ccc(F)cc3s2)cc1 | 84.2% (inactive)
59 | O=C(Cc1ccccc1Cl)Nc1nc2ccccc2[nH]1 | 84.9% (inactive)

Test system: mammalian cell line viability, cytotoxicity counter-screen
Test: as above
Conditions: not given

Row | SMILES | CC50 [µM]
60 | CCOc1ccc2nc(NC(=O)COc3ccc(Cl)c(C)c3)sc2c1 | 38.6
61 | O=C(COc1ccccc1)Nc1nc2ccccc2s1 | 66.7
62 | COc1ccc(Cl)cc1C(=O)Nc1nc2ccccc2[nH]1 | 25.4
63 | CCOc1ccc2c(c1)c(C(C)=O)c(C)n2-c1ccccc1 | 94.5
64 | COC(=O)c1sc(-c2ccc(C(C)(C)C)cc2)cc1NC(=O)CCC(=O)O | 64.7
65 | O=C(COc1ccc(Cl)cc1)Nc1nc2ccc(F)cc2s1 | 57.2
66 | O=C(COc1ccc2c3c(c(=O)oc2c1)CCC3)Nc1nc2ccccc2[nH]1 | 23.4
67 | Cc1ccccc1OCC(=O)Nc1ccccc1N1CCCCC1 | 51
68 | Cc1c(OCc2ccc(C(=O)O)cc2)ccc2c(-c3ccccc3)cc(=O)oc12 | 51.8
69 | Cc1ccc2sc(NC(=O)COc3ccccc3)nc2c1C | 20.2
70 | O=C(CCS(=O)(=O)c1ccc(F)cc1)Nc1nnc(-c2cccs2)o1 | 41.6
71 | N/C(=N\c1nc2ccccc2o1)NC(=O)COc1ccc2ccccc2c1 | 37.3
72 | O=C(COc1cccc2ccccc12)Nc1nc2ccccc2s1 | 77.7
73 | COc1ccc2nc(NC(=O)C(C)Oc3ccccc3)sc2c1 (centres undefined) | 87.7
74 | Cc1ccccc1OCC(=O)Nc1ccccc1-c1ccccc1 | 77
75 | COc1ccc2nc(NC(=O)COc3ccc(C)cc3)sc2c1 | 29.8
76 | O=C(Nc1nc2ccccc2[nH]1)c1cc2cc(Br)ccc2o1 | 11.5
77 | N/C(=N\c1nc2ccccc2o1)NC(=O)c1ccc(F)cc1 | 12.5
78 | c1ccc(Nc2ncnc3c2oc2ccccc23)cc1 | 76.9
79 | Cc1ccc(OCC(=O)Nc2ccc3c4c(cccc24)CC3)c(C)c1 | 27.2

Row | SMILES | CC50 [µM]
80 | COc1cccc(-c2ccc(-c3noc(-c4ccccc4F)n3)c(OC)n2)c1 | 46.7
81 | N/C(=N\c1nc2cc(Cl)ccc2o1)NC(=O)c1ccccc1 | 14.5
82 | CCOc1ccc2nc(NC(=O)C3(c4ccccc4)CCCC3)sc2c1 | 62.3
83 | N/C(=N\c1nc2ccccc2o1)NC(=O)c1ccccc1 | 7.4
84 | O=C(Nc1nc2ccccc2[nH]1)c1ccc(Cl)c(Cl)c1 | 83.6
85 | CC(=O)Nc1ccc2nc(NC(=O)COc3ccccc3)sc2c1 | 49.8
86 | OCCCc1cn(-c2ccccc2)c2ccccc12 | 90
87 | CCOc1ccc2nc(NC(=O)C(C)Oc3ccccc3F)sc2c1 (centres undefined) | 67.7
88 | CC(C)(Oc1ccc(Cl)cc1)C(=O)Nc1nc2ccccc2s1 | 72.3
89 | CCOc1ccc2c(c1)c(C(C)=O)c(C)n2-c1ccccc1Cl | 47.7
90 | Cc1ccccc1C(=O)Nc1nc2ccccc2[nH]1 | 71.4
91 | CC(C)Cn1c2c(c(O)c(C(=O)Nc3nccs3)c1=O)CCCC2 | 78
92 | COC(=O)c1c(C)n(-c2ccccc2)c2ccc(O)cc12 | 61.3
93 | Cc1ccc2oc(/N=C(\N)NC(=O)c3ccccc3)nc2c1 | 5.79
94 | CCOC(=O)c1cnc2cc(-c3ccc(C(C)(C)C)cc3)nn2c1N | 74.6
95 | O=C(Nc1ccccc1)Nc1csc2ccccc12 | 31.9
96 | COc1ccccc1C(=O)N/C(N)=N/c1nc2ccccc2o1 | 16.6
97 | CCC(CC)c1nnc(NC(=O)c2ccc(N3CCCCC3)c([N+](=O)[O-])c2)s1 | 41.3
98 | CC(Oc1ccc(Cl)cc1)C(=O)Nc1nc2ccccc2s1 (centres undefined) | 46.4
99 | CCCN1CC(O)=C(c2nc3ccccc3s2)C1=N | 90.5
